The numbers were not newly measured in article PMC2936243 (Journal of neurochemistry, 2010), which cites them from elsewhere.

Marks after values point to notes of the source that are not given here.

What all share (details): cited from earlier work
Series [1] has as its system α3* and α6* containing nAChR subtypes.
Series [2] concerns nAChR subtypes that contain the α1 and α9 subunits.
In series [3] the test system is GABAARs that contain the β3 subunit.
For series [4], the system named is unknown site in brain tissue from α7 knockout mice.

In the case of “monoiodinated α-conotoxin MII [[^125I]-α-CTx MII]”, the “binding selectivity” value in series [1] is “selectively binds to α3* and α6* containing nAChR subtypes”.

On to α-bungarotoxin [α-BgTx], for which, in series [2], the “binding to α1 and α9 containing nAChRs” value was “also binds to non-α7 nAChR subtypes including those that contain the α1 and α9 subunits”. For the same substance, the “binding to GABAARs” value in series [3] is listed as “binds to a subset of GABAARs that contain the β3 subunit”. Besides, the “residual binding in α7 knockout brain tissue” value in series [4] is given as “significant residual α-BgTx binding to an unknown site”.
